# Values quoted from earlier work as cited in article PMC6277198, “Molecular basis for activation of lecithin:cholesterol acyltransferase by a compound that increases HDL cholesterol” (eLife, 2018).
# Columns and labels:
# mice and hamsters = system: mice and hamsters; parameters: method as in Chen et al., 2012; Freeman et al., 2017; Kayser et al., 2013; settings: ref Chen et al., 2012, Freeman et al., 2017, Kayser et al., 2013; cited from earlier work
# LCAT = system: LCAT; parameters: method as in Kobayashi et al., 2015a; Kobayashi et al., 2015b; settings: removal of the C4 hydroxyl group, ref Kobayashi et al., 2015a, 2015b; cited from earlier work
# [1] = parameters: method as in Shamburek et al., 2016b; settings: ref Shamburek et al., 2016b; cited from earlier work
compound,measurement,setting,value
"CCSc1nnc(Sc2nccnc2C#N)s1 [Compound A, 3-(5-(ethylthio)−1,3,4-thiadiazol-2-ylthio)pyrazine-2-carbonitrile]",plasma CE and HDL-C levels,mice and hamsters,increases
"O=C1CC(C(F)(F)F)c2c(C3CCN(c4cnc(C(F)(F)F)cn4)CC3)n[nH]c2N1 (stereo not drawn) [compound 4, 4-(trifluoromethyl)−3-(1-(5-(trifluoromethyl)pyrazin-2-yl)piperidin-4-yl)−1,4,5,7-tetrahydro-6H-pyrazolo[3,4-b]pyridin-6-one]",drop in potency compared with 2,LCAT,~ 6 fold
"rhLCAT: Recombinant human LCAT, tested in phase I and as enzyme replacement therapy",safety in a phase I study,[1],safe
